What all share (type): functional
What all share (details): time 20-24 hrs

For assay [1], the system named is Staphylococcus aureus. Briefly: Antimicrobial activity against Staphylococcus aureus ATCC 25923 assessed as inhibition of visible growth measured after 20 to 24 hrs incubation by CLSI method.
Assay [2] deals with Staphylococcus epidermidis. Briefly: Antimicrobial activity against antibiotic-resistant Staphylococcus epidermidis ATCC 700296 assessed as inhibition of visible growth measured after 20 to 24 hrs incubation by CLSI method.
Assay [3] concerns Staphylococcus aureus. Briefly: Antimicrobial activity against antibiotic-resistant Staphylococcus aureus ATCC BAA-2312 assessed as inhibition of visible growth measured after 20 to 24 hrs incubation by CLSI method.
Another assay relates to Bacillus subtilis. Description: Antimicrobial activity against antibiotic-resistant Bacillus subtilis ATCC 6623 assessed as inhibition of visible growth measured after 20 to 24 hrs incubation by CLSI method.
Assay [4] has as its system Staphylococcus aureus. Briefly: Antimicrobial activity against antibiotic-resistant Staphylococcus aureus ATCC 33591 assessed as inhibition of visible growth measured after 20 to 24 hrs incubation by CLSI method.
In assay [5] the test system is Staphylococcus aureus. Briefly: Antimicrobial activity against antibiotic-resistant Staphylococcus aureus ATCC 700699 assessed as inhibition of visible growth measured after 20 to 24 hrs incubation by CLSI method.
Assay [6] has as its system Enterococcus faecalis. Description: Antimicrobial activity against antibiotic-resistant Enterococcus faecalis ATCC 51299 assessed as inhibition of visible growth measured after 20 to 24 hrs incubation by CLSI method.
The test system of assay [7] is Enterococcus faecalis. Description: Antimicrobial activity against antibiotic-susceptible Enterococcus faecalis ATCC 29212 assessed as inhibition of visible growth measured after 20 to 24 hrs incubation by CLSI method.
Assay [8] has as its system Staphylococcus aureus. Description: Antimicrobial activity against antibiotic-resistant Staphylococcus aureus ATCC 33592 assessed as inhibition of visible growth measured after 20 to 24 hrs incubation by CLSI method.
Another assay has as its system Enterococcus faecium. Briefly: Antimicrobial activity against antibiotic-resistant Enterococcus faecium ATCC 700221 assessed as inhibition of visible growth measured after 20 to 24 hrs incubation by CLSI method.

The structures appear in SMILES notation. Values after ≈ are worked out from the molar mass of the structure shown.

For `O=C(O)c1ccc(-n2cc(CNc3ccc(Br)cc3)c(-c3ccc(F)c(F)c3)n2)cc1`, the MIC (in the assay with Staphylococcus aureus [1]; in assay [2]; with Staphylococcus aureus [3]; in the assay with Bacillus subtilis; in the assay with Staphylococcus aureus [4]; in the assay with Staphylococcus aureus [5]) was over 32 µg/mL in each case. Also, the minimum inhibitory concentration (MIC) in the assay with Enterococcus faecalis [6], in the assay with Enterococcus faecalis [7], with Staphylococcus aureus [8] and in the assay on Enterococcus faecium was over 32 µg/mL in each case.
Take `Cc1ccc(NCc2cn(-c3ccc(C(=O)O)cc3)nc2-c2ccc(F)cc2)cc1Cl`: the MIC in the assay with Staphylococcus aureus [1] turned out to be 32 µg/mL (≈ 73.4 µM); in assay [2], 32 µg/mL (≈ 73.4 µM); in the assay with Staphylococcus aureus [3], 16 µg/mL (≈ 36.7 µM); in the assay on Bacillus subtilis, 8 µg/mL (≈ 18.4 µM); in the assay on Staphylococcus aureus [4], 16 µg/mL (≈ 36.7 µM); in the assay on Staphylococcus aureus [5], 4 µg/mL (≈ 9.18 µM). The MIC in the assay on Enterococcus faecalis [6] is over 32 µg/mL; in the assay with Enterococcus faecalis [7], over 32 µg/mL; with Staphylococcus aureus [8], 16 µg/mL (≈ 36.7 µM); in the assay on Enterococcus faecium it was 16 µg/mL (≈ 36.7 µM).
For `O=C(O)c1ccc(-n2cc(CNc3ccc(F)c(Cl)c3)c(-c3ccc(F)c(F)c3)n2)cc1`, the MIC with Staphylococcus aureus [1] came to 8 µg/mL (≈ 17.5 µM); in assay [2], 8 µg/mL (≈ 17.5 µM); with Staphylococcus aureus [3] it was 4 µg/mL (≈ 8.74 µM); with Bacillus subtilis it was 2 µg/mL (≈ 4.37 µM); in the assay on Staphylococcus aureus [4], 2 µg/mL (≈ 4.37 µM); in the assay with Staphylococcus aureus [5] it was 8 µg/mL (≈ 17.5 µM). Moreover, the MIC in the assay with Enterococcus faecalis [6] turned out to be 32 µg/mL (≈ 69.9 µM); in the assay with Enterococcus faecalis [7] it was 16 µg/mL (≈ 34.9 µM); in the assay on Staphylococcus aureus [8], 8 µg/mL (≈ 17.5 µM); in the assay with Enterococcus faecium, 8 µg/mL (≈ 17.5 µM).
With `COc1ccc(NCc2cn(-c3ccc(C(=O)O)cc3)nc2-c2ccc(F)cc2)cc1C(F)(F)F`, the minimal inhibitory concentration (MIC) with Staphylococcus aureus [1] was 16 µg/mL (≈ 33 µM); in assay [2], 16 µg/mL (≈ 33 µM); in the assay on Staphylococcus aureus [3], 16 µg/mL (≈ 33 µM); in the assay with Bacillus subtilis it was 8 µg/mL (≈ 16.5 µM); with Staphylococcus aureus [4], 8 µg/mL (≈ 16.5 µM); in the assay on Staphylococcus aureus [5], 8 µg/mL (≈ 16.5 µM). The MIC with Enterococcus faecalis [6] was found to be 32 µg/mL (≈ 65.9 µM); with Enterococcus faecalis [7] it was 32 µg/mL (≈ 65.9 µM); in the assay with Staphylococcus aureus [8], 16 µg/mL (≈ 33 µM); in the assay on Enterococcus faecium, 32 µg/mL (≈ 65.9 µM).
For the compound `O=C(O)c1ccc(-n2cc(CNc3ccccc3)c(-c3ccc(F)cc3)n2)cc1`, the minimum inhibitory concentration (MIC) in the assay on Staphylococcus aureus [1] stood at 32 µg/mL (≈ 82.6 µM); in assay [2], 32 µg/mL (≈ 82.6 µM); in the assay on Staphylococcus aureus [3], 32 µg/mL (≈ 82.6 µM); in the assay on Bacillus subtilis, 16 µg/mL (≈ 41.3 µM); in the assay on Staphylococcus aureus [4] it was 32 µg/mL (≈ 82.6 µM); with Staphylococcus aureus [5], 32 µg/mL (≈ 82.6 µM). Moreover, the MIC in the assay on Enterococcus faecalis [6] is over 32 µg/mL; in the assay with Enterococcus faecalis [7] it was over 32 µg/mL; with Staphylococcus aureus [8], 32 µg/mL (≈ 82.6 µM); with Enterococcus faecium, over 32 µg/mL.
`O=C(O)c1ccc(-n2cc(CNc3cc(F)c(F)c(F)c3)c(-c3ccc(F)c(F)c3)n2)cc1`: the MIC amounted to 8 µg/mL (≈ 17.4 µM) in the assay on Staphylococcus aureus [1]; 16 µg/mL (≈ 34.8 µM) in assay [2]; 8 µg/mL (≈ 17.4 µM) in the assay with Staphylococcus aureus [3]; 4 µg/mL (≈ 8.71 µM) with Bacillus subtilis; 4 µg/mL (≈ 8.71 µM) in the assay with Staphylococcus aureus [4]; 8 µg/mL (≈ 17.4 µM) in the assay with Staphylococcus aureus [5]. The MIC with Enterococcus faecalis [6] is over 32 µg/mL; with Enterococcus faecalis [7] it was over 32 µg/mL; in the assay with Staphylococcus aureus [8], 8 µg/mL (≈ 17.4 µM); in the assay on Enterococcus faecium, 8 µg/mL (≈ 17.4 µM).
In the case of `O=C(O)c1ccc(-n2cc(CNc3cccc(OC(F)(F)F)c3)c(-c3ccc(F)cc3)n2)cc1`, the MIC in the assay on Staphylococcus aureus [1] stood at 4 µg/mL (≈ 8.49 µM); in assay [2], 8 µg/mL (≈ 17 µM); with Staphylococcus aureus [3], 4 µg/mL (≈ 8.49 µM); in the assay with Bacillus subtilis, 2 µg/mL (≈ 4.24 µM); with Staphylococcus aureus [4] it was 2 µg/mL (≈ 4.24 µM); in the assay with Staphylococcus aureus [5], 8 µg/mL (≈ 17 µM). Besides, the MIC with Enterococcus faecalis [6] turned out to be 16 µg/mL (≈ 33.9 µM); in the assay on Enterococcus faecalis [7], 16 µg/mL (≈ 33.9 µM); in the assay on Staphylococcus aureus [8], 8 µg/mL (≈ 17 µM); in the assay on Enterococcus faecium, 16 µg/mL (≈ 33.9 µM).
With `O=C(O)c1ccc(-n2cc(CNc3ccc(Oc4ccccc4)cc3)c(-c3ccc(F)c(F)c3)n2)cc1`, the MIC in the assay on Staphylococcus aureus [1] was found to be 1 µg/mL (≈ 2.01 µM); in assay [2], 2 µg/mL (≈ 4.02 µM); in the assay on Staphylococcus aureus [3], 1 µg/mL (≈ 2.01 µM); in the assay on Bacillus subtilis, 1 µg/mL (≈ 2.01 µM); with Staphylococcus aureus [4] it was 1 µg/mL (≈ 2.01 µM); in the assay with Staphylococcus aureus [5], 2 µg/mL (≈ 4.02 µM). Moreover, the MIC was determined as 4 µg/mL (≈ 8.04 µM) with Enterococcus faecalis [6], 4 µg/mL (≈ 8.04 µM) in the assay on Enterococcus faecalis [7], 2 µg/mL (≈ 4.02 µM) in the assay on Staphylococcus aureus [8] and 2 µg/mL (≈ 4.02 µM) in the assay on Enterococcus faecium.

By MIC is commonly meant the smallest concentration in the dilution series that meets the test's criterion for growth inhibition.

(Values after ChEMBL document CHEMBL5365500, “Development and Antibacterial Properties of 4-[4-(Anilinomethyl)-3-phenylpyrazol-1-yl]benzoic Acid Derivatives as Fatty Acid Biosynthesis Inhibitors” (J Med Chem, 2023).)
